In patent publication US20240327364A1, “THERAPEUTIC TARGETING OF GPR68 TO INDUCE FERROPTOSIS” (University Of Maryland, Baltimore, priority 2023, published 2024):

How the values were obtained:
U138 = assay: Liperfluo lipid peroxidation; assay type: cell-based, human
Description: (§1) Cells were plated on a 100 mm cell culture dish (CELLTREAT Scientific Products) in 10 mls of DMEM with high glucose, GlutaMAX, HEPES, Penicillin-Streptomycin (ThermoFisher™) and 10% FBS. Cells were incubated overnight at 37° C. in 5% CO2. Media were then replaced with […] fresh media with DMSO, OGM2, or Erastin (APExBIO Technology™) and the cells incubated for 3 days. On the third day, 3 mL fresh media with 2.5 μM Liperfluo™ (Dojindo Molecular Technologies™, Inc.) resuspended in DMSO was added and cells were incubated at 37° C. in 5% CO2 for 1 hour. Cells were subsequently trypsinized for 5 minutes, pelleted by centrifugation, and resuspended in cell sorting media (1% BSA and 1 mM EDTA in PBS pH 7.4). Ten thousand events were recorded on a BD LSR II and the data processed using the FlowJo™ software.
(§2) Where appropriate, ANOVA, or student's T-test were conducted in PRISM. Chi squared T(X) was used for Liperfluo analysis. A value T(X)>4 implies that the two distributions are different with a p<0.01 (99% confidence). For drug interaction and therapeutic interaction, the coefficient of drug interaction (CDI) was calculated as follows: CDI=AB/(A×B). According to the impact of each group, AB is the value of combined treatment and A or B is the value of the single agent group to control group.

U87 = assay: Liperfluo lipid peroxidation; assay type: cell-based, human; details: OGM2 and 2Gy ionizing radiation
Description: as §1, §2

NEK7 = biological target: T1, NEK7 (Homo sapiens, UniProt Q8TDX7); assay: KinomeScan; assay type: binding; details: read-out: % Control
T1 construct: purchased DiscoveRx
T1 sequence (Q8TDX7 whole entry): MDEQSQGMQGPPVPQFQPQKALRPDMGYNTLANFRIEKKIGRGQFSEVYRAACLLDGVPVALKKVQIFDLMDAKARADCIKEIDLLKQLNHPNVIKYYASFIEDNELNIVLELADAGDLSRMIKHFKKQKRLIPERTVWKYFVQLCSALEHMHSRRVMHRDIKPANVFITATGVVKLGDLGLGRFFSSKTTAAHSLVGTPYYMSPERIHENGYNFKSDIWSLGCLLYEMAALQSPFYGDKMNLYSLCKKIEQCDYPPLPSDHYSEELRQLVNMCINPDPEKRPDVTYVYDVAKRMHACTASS

PKAC-alpha = biological target: T2, PKAC-alpha (Homo sapiens, UniProt P17612); assay: KinomeScan; assay type: binding; details: read-out: % Control
T2 construct: purchased DiscoveRx (Fremont, CA)

SIK = biological target: T3, SIK (Homo sapiens, UniProt P57059); assay: KinomeScan; assay type: binding; details: read-out: % Control
T3 construct: purchased DiscoveRx (Fremont, CA)
T3 sequence (P57059 whole entry): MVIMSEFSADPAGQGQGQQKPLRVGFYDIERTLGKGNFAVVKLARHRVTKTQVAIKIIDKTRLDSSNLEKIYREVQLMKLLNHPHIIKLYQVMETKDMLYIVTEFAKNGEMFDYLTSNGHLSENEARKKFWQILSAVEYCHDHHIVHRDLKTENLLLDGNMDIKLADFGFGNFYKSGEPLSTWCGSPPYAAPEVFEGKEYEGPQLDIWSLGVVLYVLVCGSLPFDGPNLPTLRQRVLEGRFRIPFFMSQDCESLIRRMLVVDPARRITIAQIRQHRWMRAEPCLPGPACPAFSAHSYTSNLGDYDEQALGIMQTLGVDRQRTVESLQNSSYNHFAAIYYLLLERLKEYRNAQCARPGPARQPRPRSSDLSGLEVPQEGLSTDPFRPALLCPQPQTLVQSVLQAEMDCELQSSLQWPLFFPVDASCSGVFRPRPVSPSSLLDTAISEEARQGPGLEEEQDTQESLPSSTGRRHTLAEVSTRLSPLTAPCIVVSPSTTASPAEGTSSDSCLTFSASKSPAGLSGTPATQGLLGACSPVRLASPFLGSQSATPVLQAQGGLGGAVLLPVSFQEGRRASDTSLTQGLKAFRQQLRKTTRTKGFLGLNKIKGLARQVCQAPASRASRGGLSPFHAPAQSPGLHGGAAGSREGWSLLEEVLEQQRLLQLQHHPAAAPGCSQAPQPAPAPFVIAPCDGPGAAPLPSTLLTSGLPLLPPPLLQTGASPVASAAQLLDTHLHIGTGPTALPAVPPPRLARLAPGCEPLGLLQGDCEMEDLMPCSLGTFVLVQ

MLK1 = biological target: T4, MLK1 (Homo sapiens, UniProt P80192); assay: KinomeScan; assay type: binding; details: read-out: % Control
T4 construct: purchased DiscoveRx

IKK-alpha = biological target: T5, IKK-alpha (Homo sapiens, UniProt O15111); assay: KinomeScan; assay type: binding; details: read-out: % Control
T5 construct: purchased DiscoveRx (Fremont, CA)
T5 sequence (O15111 whole entry): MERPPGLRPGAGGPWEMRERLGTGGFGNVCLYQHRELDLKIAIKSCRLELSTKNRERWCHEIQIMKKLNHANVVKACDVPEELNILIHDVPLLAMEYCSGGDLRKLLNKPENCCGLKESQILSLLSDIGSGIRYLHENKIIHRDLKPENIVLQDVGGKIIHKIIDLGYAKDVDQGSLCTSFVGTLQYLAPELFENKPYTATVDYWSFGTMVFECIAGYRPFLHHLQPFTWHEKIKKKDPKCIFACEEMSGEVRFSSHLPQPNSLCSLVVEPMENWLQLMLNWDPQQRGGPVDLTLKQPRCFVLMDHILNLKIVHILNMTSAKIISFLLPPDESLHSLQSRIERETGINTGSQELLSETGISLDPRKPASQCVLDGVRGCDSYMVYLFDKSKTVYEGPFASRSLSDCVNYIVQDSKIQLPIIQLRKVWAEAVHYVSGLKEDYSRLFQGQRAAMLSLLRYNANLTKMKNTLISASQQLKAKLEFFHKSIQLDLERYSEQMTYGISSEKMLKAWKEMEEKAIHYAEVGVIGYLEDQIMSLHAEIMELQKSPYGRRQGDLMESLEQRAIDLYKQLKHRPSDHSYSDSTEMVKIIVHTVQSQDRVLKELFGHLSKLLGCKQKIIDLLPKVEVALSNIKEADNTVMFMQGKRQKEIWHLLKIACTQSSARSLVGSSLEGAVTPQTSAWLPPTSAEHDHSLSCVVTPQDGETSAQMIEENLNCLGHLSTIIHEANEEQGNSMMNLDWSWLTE

NMU2 = biological target: T6, NMU2 (Homo sapiens, UniProt Q9GZQ4); assay: GPCR Profiler; assay type: cell-based
T6 construct: host or cells: Chem-1 cells expressing Gα15
T6 sequence (Q9GZQ4 whole entry, species assumed): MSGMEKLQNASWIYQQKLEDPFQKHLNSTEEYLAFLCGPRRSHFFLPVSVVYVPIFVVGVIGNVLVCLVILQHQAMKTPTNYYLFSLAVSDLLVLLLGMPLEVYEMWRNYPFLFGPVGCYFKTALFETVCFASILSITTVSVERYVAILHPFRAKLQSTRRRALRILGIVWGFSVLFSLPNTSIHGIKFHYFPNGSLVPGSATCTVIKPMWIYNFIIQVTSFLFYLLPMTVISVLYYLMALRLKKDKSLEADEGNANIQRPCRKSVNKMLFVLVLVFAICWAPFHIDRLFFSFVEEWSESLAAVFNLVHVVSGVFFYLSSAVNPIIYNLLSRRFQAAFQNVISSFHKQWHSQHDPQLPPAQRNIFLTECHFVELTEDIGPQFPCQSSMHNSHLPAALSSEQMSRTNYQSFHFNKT

CSNK1G3 = CSNK1G3 (Homo sapiens, UniProt Q9Y6M4); assay: KinomeScan; assay type: binding; details: read-out: % Control
DYRK1B = biological target: T7, DYRK1B (Homo sapiens, UniProt Q9Y463); assay: KinomeScan; assay type: binding; details: read-out: % Control
T7 construct: purchased DiscoveRx (Fremont, CA), KinomeScan service
T7 sequence (Q9Y463 whole entry): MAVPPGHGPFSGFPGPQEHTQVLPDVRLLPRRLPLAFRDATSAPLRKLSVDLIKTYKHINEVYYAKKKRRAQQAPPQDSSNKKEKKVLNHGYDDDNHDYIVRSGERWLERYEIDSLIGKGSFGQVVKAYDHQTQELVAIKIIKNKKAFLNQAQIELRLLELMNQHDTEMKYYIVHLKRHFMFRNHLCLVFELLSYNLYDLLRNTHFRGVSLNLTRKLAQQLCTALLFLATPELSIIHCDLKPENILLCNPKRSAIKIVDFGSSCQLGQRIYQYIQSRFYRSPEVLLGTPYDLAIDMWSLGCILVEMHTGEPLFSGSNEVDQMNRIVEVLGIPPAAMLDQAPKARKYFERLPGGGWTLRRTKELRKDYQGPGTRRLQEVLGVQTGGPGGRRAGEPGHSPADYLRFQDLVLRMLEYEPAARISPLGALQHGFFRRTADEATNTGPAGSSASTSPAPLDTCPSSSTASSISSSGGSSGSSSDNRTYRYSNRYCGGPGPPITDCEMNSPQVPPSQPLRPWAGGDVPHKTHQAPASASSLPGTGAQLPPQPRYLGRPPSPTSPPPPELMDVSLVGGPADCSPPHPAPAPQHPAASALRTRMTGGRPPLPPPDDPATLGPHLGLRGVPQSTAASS

EPHA6 = biological target: T8, EPHA6 (Homo sapiens, UniProt Q9UF33); assay: KinomeScan; assay type: binding; details: read-out: % Control
T8 construct: purchased DiscoveRx (Fremont, CA)

[1] = biological target: T9, ABL1(H396P)-phosphorylated (Homo sapiens, UniProt P00519, H396P); assay: KinomeScan; assay type: binding; details: read-out: % Control
T9 construct: purchased DiscoveRx

AMPK-alpha2 = biological target: T10, AMPK-alpha2 (Homo sapiens, UniProt P54646); assay: KinomeScan; assay type: binding; details: read-out: % Control
T10 construct: purchased DiscoveRx (Fremont, CA)
T10 sequence (P54646 whole entry): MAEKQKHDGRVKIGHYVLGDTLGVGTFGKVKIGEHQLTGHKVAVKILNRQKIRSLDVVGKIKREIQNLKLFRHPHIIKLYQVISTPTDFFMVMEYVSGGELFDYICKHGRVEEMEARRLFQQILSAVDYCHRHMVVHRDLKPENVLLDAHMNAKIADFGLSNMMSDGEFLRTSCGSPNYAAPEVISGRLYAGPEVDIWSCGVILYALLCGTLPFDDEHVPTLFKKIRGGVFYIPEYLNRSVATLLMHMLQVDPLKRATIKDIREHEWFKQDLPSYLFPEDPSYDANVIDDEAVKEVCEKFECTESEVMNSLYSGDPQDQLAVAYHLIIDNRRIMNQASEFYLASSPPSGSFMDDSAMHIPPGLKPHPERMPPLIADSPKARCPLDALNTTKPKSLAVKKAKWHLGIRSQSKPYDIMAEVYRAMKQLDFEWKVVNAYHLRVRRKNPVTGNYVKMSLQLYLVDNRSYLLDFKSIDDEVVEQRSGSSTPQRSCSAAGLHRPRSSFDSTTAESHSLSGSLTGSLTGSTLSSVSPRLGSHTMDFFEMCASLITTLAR

TBK1 = biological target: T11, TBK1 (Homo sapiens, UniProt Q9UHD2); assay: KinomeScan; assay type: binding; details: read-out: % Control
T11 construct: purchased DiscoveRx (Fremont, CA)

LCK = biological target: T12, LCK (Homo sapiens, UniProt P06239); assay: KinomeScan; assay type: binding; details: read-out: % Control
T12 construct: purchased DiscoveRx
T12 sequence (P06239 whole entry): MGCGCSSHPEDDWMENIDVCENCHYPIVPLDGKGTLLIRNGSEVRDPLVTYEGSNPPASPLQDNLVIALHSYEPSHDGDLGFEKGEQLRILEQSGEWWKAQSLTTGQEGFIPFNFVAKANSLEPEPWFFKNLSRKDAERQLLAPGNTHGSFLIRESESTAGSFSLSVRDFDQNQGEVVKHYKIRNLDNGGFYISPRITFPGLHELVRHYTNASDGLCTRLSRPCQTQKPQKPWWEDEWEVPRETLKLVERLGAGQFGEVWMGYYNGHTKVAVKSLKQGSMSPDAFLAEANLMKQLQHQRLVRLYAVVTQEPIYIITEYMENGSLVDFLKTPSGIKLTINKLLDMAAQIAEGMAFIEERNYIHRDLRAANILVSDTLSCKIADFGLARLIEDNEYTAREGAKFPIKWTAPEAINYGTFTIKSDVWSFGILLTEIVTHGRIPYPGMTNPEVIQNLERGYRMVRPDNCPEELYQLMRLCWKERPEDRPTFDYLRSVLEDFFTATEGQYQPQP

SRPK1 = biological target: T13, SRPK1 (Homo sapiens, UniProt Q96SB4); assay: KinomeScan; assay type: binding; details: read-out: % Control
T13 construct: purchased DiscoveRx (Fremont, CA)
T13 sequence (Q96SB4 whole entry): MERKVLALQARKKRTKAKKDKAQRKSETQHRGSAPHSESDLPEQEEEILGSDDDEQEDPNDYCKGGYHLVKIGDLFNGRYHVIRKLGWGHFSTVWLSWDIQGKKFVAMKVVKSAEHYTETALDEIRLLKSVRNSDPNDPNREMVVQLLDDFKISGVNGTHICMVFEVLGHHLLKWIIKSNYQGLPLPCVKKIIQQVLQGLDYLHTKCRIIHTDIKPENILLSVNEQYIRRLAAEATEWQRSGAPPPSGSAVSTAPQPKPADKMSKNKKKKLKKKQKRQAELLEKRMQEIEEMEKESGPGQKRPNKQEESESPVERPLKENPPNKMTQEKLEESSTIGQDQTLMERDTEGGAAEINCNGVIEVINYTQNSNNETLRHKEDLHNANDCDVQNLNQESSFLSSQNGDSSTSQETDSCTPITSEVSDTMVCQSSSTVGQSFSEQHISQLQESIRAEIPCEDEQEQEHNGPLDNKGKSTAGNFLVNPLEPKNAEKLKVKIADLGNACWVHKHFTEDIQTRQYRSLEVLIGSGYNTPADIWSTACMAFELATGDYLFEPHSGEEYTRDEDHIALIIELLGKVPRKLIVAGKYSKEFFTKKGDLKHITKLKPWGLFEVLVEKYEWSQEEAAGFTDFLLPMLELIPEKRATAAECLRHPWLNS

FGFR3 = biological target: T14, FGFR3 (Homo sapiens, UniProt P22607); assay: KinomeScan; assay type: binding; details: read-out: % Control
T14 construct: purchased DiscoveRx (Fremont, CA)

RIPK5 = biological target: T15, RIPK5 (Homo sapiens, UniProt Q6XUX3); assay: KinomeScan; assay type: binding; details: read-out: % Control
T15 construct: purchased DiscoveRx (Fremont, CA)

PIP5K2B = biological target: T16, PIP5K2B (Homo sapiens, UniProt P78356); assay: KinomeScan; assay type: binding; details: read-out: % Control
T16 construct: purchased DiscoveRx (Fremont, CA)

[2] = biological target: T17, ABL1(F317I)-nonphosphorylated (Homo sapiens, UniProt P00519, F317I); assay: KinomeScan; assay type: binding; details: read-out: % Control
T17 construct: purchased DiscoveRx

WEE1 = biological target: T18, WEE1 (Homo sapiens, UniProt P30291); assay: KinomeScan; assay type: binding; details: read-out: % Control
T18 construct: purchased DiscoveRx

APJ = biological target: T19, APJ (Homo sapiens, UniProt P35414); assay: GPCR Profiler; assay type: cell-based
T19 construct: host or cells: Chem-1 cells with promiscuous Gα15
T19 sequence (P35414 whole entry, species assumed): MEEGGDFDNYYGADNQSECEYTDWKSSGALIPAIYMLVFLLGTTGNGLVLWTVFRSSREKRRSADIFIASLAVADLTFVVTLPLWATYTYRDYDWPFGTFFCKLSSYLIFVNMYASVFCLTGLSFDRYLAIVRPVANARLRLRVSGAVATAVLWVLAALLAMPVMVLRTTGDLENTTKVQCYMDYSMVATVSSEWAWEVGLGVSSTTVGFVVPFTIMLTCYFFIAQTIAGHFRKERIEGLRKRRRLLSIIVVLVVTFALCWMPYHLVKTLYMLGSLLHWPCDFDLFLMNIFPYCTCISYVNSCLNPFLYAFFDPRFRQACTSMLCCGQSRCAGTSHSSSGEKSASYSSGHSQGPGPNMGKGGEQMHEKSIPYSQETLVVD

CSNK1G2 = CSNK1G2 (Homo sapiens, UniProt P78368); assay: KinomeScan; assay type: binding; details: read-out: % Control
EPHA7 = biological target: T20, EPHA7 (Homo sapiens, UniProt Q15375); assay: KinomeScan; assay type: binding; details: read-out: % Control
T20 construct: purchased DiscoveRx (Fremont, CA)

CCc1ccc2c(c1)C1(NN=C(c3ccccc3)S1)C(=O)N2 (stereo not shown) [OGM2]
Chi-squared T(X), lipid peroxidation (U138; 2 μM): 273 | Chi-squared T(X), lipid peroxidation (U138; 10 μM): 592 | CDI, lipid peroxidation (U138; OGM2 and 2Gy ionizing radiation): < 0.006 | CDI, lipid peroxidation (U87): < 0.06

CCc1ccc2c(c1)C1(NN=C(c3cccc4ccccc34)S1)C(=O)N2 (stereo not shown) [OGM1, 5-ethyl-5′-naphthalen-1-ylspiro[1H-indole-3,2′-3H-1,3,4-thiadiazole]-2-one]
remaining binding at 10 µM (NEK7): 100% | remaining binding at 10 µM (PKAC-alpha): 95% | remaining binding at 10 µM (SIK): 95% | remaining binding at 10 µM (MLK1): 100% | remaining binding at 10 µM (IKK-alpha): 83% | Antagonism (NMU2; 10 uM): −4.2 | Agonism (NMU2; 12.5 uM): 0 | remaining binding at 10 µM (CSNK1G3): 100% | remaining binding at 10 µM (DYRK1B): 58% | remaining binding at 10 µM (EPHA6): 100% | remaining binding at 10 µM [1]: 83% | remaining binding at 10 µM (AMPK-alpha2): 100% | remaining binding at 10 µM (TBK1): 90% | remaining binding at 10 µM (LCK): 100% | remaining binding at 10 µM (SRPK1): 77% | remaining binding at 10 µM (FGFR3): 100% | remaining binding at 10 µM (RIPK5): 56% | remaining binding at 10 µM (PIP5K2B): 100% | remaining binding at 10 µM [2]: 100% | remaining binding at 10 µM (WEE1): 100% | Antagonism (APJ; 10 uM): 7.7 | Agonism (APJ; 12.5 uM): 0.9 | remaining binding at 10 µM (CSNK1G2): 100% | remaining binding at 10 µM (EPHA7): 100%
